Experimental data: ChEMBL document CHEMBL1130576, “Design and synthesis of a macrocyclic E-Selectin antagonist” (Bioorg Med Chem Lett, 1997)

How the values were obtained:
[1] = target: T1, E-selectin (Homo sapiens) (UniProt P16581); test: Compound was evaluated for in vitro affinity towards Selectin E, activity expressed as IC50 relative to Sialyl lewisX
T1 sequence (whole entry): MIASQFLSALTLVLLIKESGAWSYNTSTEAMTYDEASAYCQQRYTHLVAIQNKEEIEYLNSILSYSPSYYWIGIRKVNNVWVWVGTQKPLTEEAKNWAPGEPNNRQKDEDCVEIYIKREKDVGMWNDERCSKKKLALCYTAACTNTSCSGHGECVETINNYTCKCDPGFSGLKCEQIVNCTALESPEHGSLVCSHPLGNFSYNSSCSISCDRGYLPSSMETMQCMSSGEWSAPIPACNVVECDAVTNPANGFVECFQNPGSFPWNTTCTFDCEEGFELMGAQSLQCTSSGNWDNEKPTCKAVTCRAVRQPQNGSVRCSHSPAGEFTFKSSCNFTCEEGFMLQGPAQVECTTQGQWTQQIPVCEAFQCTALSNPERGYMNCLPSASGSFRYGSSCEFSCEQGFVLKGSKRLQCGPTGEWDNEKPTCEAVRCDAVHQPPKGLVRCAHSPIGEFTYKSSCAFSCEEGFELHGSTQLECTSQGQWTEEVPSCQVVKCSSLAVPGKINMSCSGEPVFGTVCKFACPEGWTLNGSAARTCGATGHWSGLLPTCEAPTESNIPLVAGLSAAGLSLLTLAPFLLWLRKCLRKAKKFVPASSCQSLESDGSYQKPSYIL

[2] = target: T1, E-selectin (Homo sapiens); test: Compound was evaluated for in vitro affinity towards Selectin E

| Structure (SMILES) | RIC50 [1] | RIC50 [2] |
| --- | --- | --- |
| O=C(O)CC[C@@H]1O[C@@H](O[C@@H]2CCCC[C@H]2O[C@@H]2O[C@@H](CO)[C@H](O)[C@H](O[C@@H](Cc3ccccc3)C(=O)O)[C@@H]2O)[C@@H](O)[C@@H](O)[C@@H]1O | 0.39 |  |
| COC(=O)CCCCCCCCO[C@@H]1O[C@@H](CO)[C@@H](O[C@@H]2O[C@@H](CO)[C@H](O)[C@H](O[C@]3(C(=O)O)C[C@@H](O)[C@@H](NC(C)=O)[C@H]([C@H](O)[C@H](O)CO)O3)[C@@H]2O)[C@H](O[C@@H]2O[C@@H](C)[C@@H](O)[C@H](O)[C@@H]2O)[C@@H]1NC(C)=O |  | 1 |
| O=C1CC[C@@H]2O[C@@H](O[C@@H]3CCCC[C@H]3O[C@@H]3O[C@@H](CO)[C@H](O)[C@H](O[C@@H](Cc4ccccc4)C(=O)O)[C@H]3O1)[C@@H](O)[C@@H](O)[C@@H]2O | 2.8 |  |
